The source of these data is the supplement of paper PMC9265050, “Inhibition of RNA Binding in SND1 Increases the Levels of miR-1-3p and Sensitizes Cancer Cells to Navitoclax” (Cancers, 2022).

This test has as its system SW480. The test can be described thus: drug sensitivity score (DSS, integrated dose-response area); higher = more sensitive (stronger viability reduction); extreme values may be limits of the assay. In a few lines: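 SW480 cells stably carrying doxycycline-inducible control or SND1-targeting shRNA were treated with 0.1 µg/mL doxycycline for 7 days. Cells were then seeded at 1000 per well into 384-well plates containing 525 commercially available small-molecule inhibitors at five concentrations, and viability was measured with CellTiter-Glo after 72 h. The drug sensitivity score integrates the area under a fitted non-linear dose–response model.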

The mark [1] stands for this setting: shRNA: SND1 shRNA1 (SND1 silenced).
Where [2] appears, read: shRNA: SND1 shRNA2 (SND1 silenced).
The mark [3] stands for this setting: shRNA: control shRNA (non-targeting).

As to `COc1cc(OC2CCN(C)CC2)ccc1Nc1ncc2c(n1)n(C1CCCC1)c(=O)n2C` [AZ 3146], the drug sensitivity score under setting [1] was determined as 10.9 DSS, the drug sensitivity score under setting [2] worked out at 10.6 DSS and the drug sensitivity score under setting [3] was found to be 9.5 DSS.
In turn, `COc1ccc(C2=N[C@@H](c3ccc(Cl)cc3)[C@@H](c3ccc(Cl)cc3)N2C(=O)N2CCNC(=O)C2)c(OC(C)C)c1` [Nutlin-3] came in with a drug sensitivity score under setting [1] of 0 DSS, a drug sensitivity score under setting [2] of 0 DSS and a drug sensitivity score under setting [3] of 0.2 DSS.
Regarding `O=C(Nc1cc(Cl)cc2c1[nH]c1cnccc12)c1cccnc1` [PS-1145], the drug sensitivity score under setting [1] turned out to be 0.4 DSS, the drug sensitivity score under setting [2] was 0 DSS and the drug sensitivity score under setting [3] worked out at 1.8 DSS.
As to `CC(C)[C@@H](CS(=O)(=O)C(C)C)N1C(=O)[C@@](C)(CC(=O)O)C[C@H](c2cccc(Cl)c2)[C@H]1c1ccc(Cl)cc1` [AMG-232], the drug sensitivity score runs as follows: under setting [1], 0 DSS; under setting [2], 0 DSS; under setting [3], 0 DSS.
With `CNC(=O)c1ccccc1Sc1ccc2c(/C=C/c3ccccn3)n[nH]c2c1` [Axitinib], the drug sensitivity score stood at 6 DSS under setting [1], 2.8 DSS under setting [2] and 5.4 DSS under setting [3].
`c1cn2cc(-c3ccc4cn[nH]c4c3)nc(Nc3ccc(N4CCOCC4)cc3)c2n1` [Entospletinib]: the drug sensitivity score runs as follows: under setting [1], 0 DSS; under setting [2], 0 DSS; under setting [3], 0 DSS.
With `Nc1nc2[nH]cnc2c(=S)[nH]1` [Thioguanine], the drug sensitivity score reads like this: under setting [1], 9.3 DSS; under setting [2], 5.9 DSS; under setting [3], 8.4 DSS.
Take `c1ccc([C@H]2CN3CCSC3=N2)cc1` [Levamisole]: the drug sensitivity score turned out to be 0 DSS under setting [1], 0 DSS under setting [2] and 0 DSS under setting [3].
As to `CCc1nc(-c2cccc(C)c2)c(-c2ccnc(NC(=O)c3ccccc3)c2)s1` [TAK-715], the drug sensitivity score under setting [1] was determined as 4.7 DSS and the drug sensitivity score under setting [3] is 5.1 DSS.
The like results for `CCCC(CCC)C(=O)O` [Valproic acid] were, in that order, 0 DSS and 0 DSS.
For `Cn1nccc1Nc1nccc(-c2ccn([C@H](CO)c3ccc(Cl)c(F)c3)c(=O)c2)n1` [GDC-0994], the drug sensitivity score came out at 5.9 DSS under setting [1], 0.2 DSS under setting [2] and 5.2 DSS under setting [3].
Compound `N#Cc1c(Oc2ccc(F)c(NC(=O)Cc3cccc(C(F)(F)F)c3)c2)ccc2nc(NC(=O)C3CC3)sc12` [TAK-632] displayed a drug sensitivity score under setting [1] of 5.9 DSS, a drug sensitivity score under setting [2] of 0.5 DSS and a drug sensitivity score under setting [3] of 3.1 DSS.
On to `CCCCC(=O)OCC(=O)[C@]1(O)Cc2c(O)c3c(c(O)c2[C@@H](O[C@H]2C[C@H](NC(=O)C(F)(F)F)[C@H](O)[C@H](C)O2)C1)C(=O)c1c(OC)cccc1C3=O` [Valrubicin], for which the drug sensitivity score is, setting by setting: under setting [1], 8.7 DSS; under setting [2], 7.8 DSS; under setting [3], 8.2 DSS.
For `COc1cccc2c1C(=O)c1c(O)c3c(c(O)c1C2=O)C[C@@](O)(C(C)=O)C[C@@H]3O[C@H]1C[C@H](N)[C@H](O)[C@H](C)O1` [Daunorubicin] the same measures were 9.5 DSS, 7.3 DSS and 10 DSS.
The like results for `O=c1sn(-c2cccc3ccccc23)c(=O)n1Cc1ccccc1` [Tideglusib] were, in that order, 0.1 DSS, 1.2 DSS and 0.1 DSS.
The like results for `COc1ccc(C[C@H](NC(=O)[C@H](C)NC(=O)CN2CCOCC2)C(=O)N[C@@H](Cc2ccccc2)C(=O)C2(C)CO2)cc1` (stereo in doubt) [ONX-0914] were, in that order, 12.9 DSS, 12.6 DSS and 15.4 DSS.
`CO[C@@]12[C@H](COC(N)=O)C3=C(C(=O)C(C)=C(N)C3=O)N1C[C@@H]1N[C@@H]12` [Mitomycin C]: the drug sensitivity score worked out at 2.7 DSS under setting [1], 2.1 DSS under setting [2] and 1 DSS under setting [3].
Turning to `CN(C)C1CCN(C(=O)c2ccc(NC(=O)Nc3ccc(-c4nc(N5CCOCC5)nc(N5CCOCC5)n4)cc3)cc2)CC1` [Gedatolisib], the drug sensitivity score was found to be 4.2 DSS under setting [1], 9.6 DSS under setting [2] and 10.3 DSS under setting [3].
For `O=C(/C=C\n1cnc(-c2cc(C(F)(F)F)cc(C(F)(F)F)c2)n1)NNc1cnccn1` [Selinexor] the same measures were 19.5 DSS, 19.3 DSS and 20.7 DSS.
`CCn1c(=O)c(-c2ccc(Cl)cc2Cl)cc2cnc(Nc3ccc(N4CCNCC4)c(F)c3)nc21` [FRAX486] returned a drug sensitivity score under setting [1] of 5 DSS, a drug sensitivity score under setting [2] of 4.8 DSS and a drug sensitivity score under setting [3] of 8.5 DSS.
Take `COCC[n+]1c2c(n(Cc3cnccn3)c1C)C(=O)c1ccccc1C2=O` [YM155]: the drug sensitivity score turned out to be 15.5 DSS under setting [1], 8.8 DSS under setting [2] and 21.4 DSS under setting [3].
Regarding `CCn1cc(-c2ccnc3[nH]c(-c4cccc(CN(C)C)c4)cc23)c(-c2ccc(NC(=O)N(C)C)cc2)n1`, the drug sensitivity score runs as follows: under setting [1], 7.8 DSS; under setting [2], 9.5 DSS; under setting [3], 10.2 DSS.
Regarding `O=C(O)CNC(=O)c1c(O)c2ccccc2n(Cc2ccccc2)c1=O` [IOX-2], the drug sensitivity score runs as follows: under setting [1], 5 DSS; under setting [2], 2.3 DSS; under setting [3], 6.2 DSS.
`O[C@H]1CC[C@H](Nc2ncc3nc(Nc4c(F)cc(F)cc4F)n([C@H]4CCOC4)c3n2)CC1` [Tanzisertib]: the drug sensitivity score under setting [1] was 2.9 DSS and the drug sensitivity score under setting [3] came to 3.4 DSS.
For the compound `Cn1cc(CNCC2CCN(c3ncc(C(=O)NO)cn3)CC2)c2ccccc21` [Quisinostat], the drug sensitivity score runs as follows: under setting [1], 14.9 DSS; under setting [2], 14.6 DSS; under setting [3], 13.6 DSS.
For `CC(=O)O[C@@]12CO[C@@H]1C[C@H](O)[C@@]1(C)C(=O)[C@H](O)C3=C(C)[C@@H](OC(=O)[C@H](O)[C@@H](NC(=O)OC(C)(C)C)c4ccccc4)C[C@@](O)([C@@H](OC(=O)c4ccccc4)[C@H]21)C3(C)C` [Docetaxel] the same measures were 18.1 DSS, 16.5 DSS and 19 DSS.
Consider `C=C1C[C@@H]2[C@H](CC[C@]3(C)C(=O)CC[C@@H]23)[C@@]2(C)C=CC(=O)C=C12` [Exemestane], for which the drug sensitivity score under setting [1] amounted to 3.1 DSS, the drug sensitivity score under setting [2] stood at 3 DSS and the drug sensitivity score under setting [3] was 4.6 DSS.
`CCn1c(-c2nonc2N)nc2c(C#CC(C)(C)O)ncc(OC[C@H]3CCCNC3)c21`: the drug sensitivity score runs as follows: under setting [1], 0.9 DSS; under setting [3], 2 DSS.
For the compound `Nc1nc(N)c2nc(-c3cccc(O)c3)c(-c3cccc(O)c3)nc2n1` [TG100-115], the drug sensitivity score reads like this: under setting [1], 0 DSS; under setting [2], 2.6 DSS; under setting [3], 4.9 DSS.
With `COc1cc(N2CCN(C)CC2)ccc1Nc1nccc(-c2cn(C)c3cnccc23)n1` [AZ191], the drug sensitivity score reads like this: under setting [1], 6.8 DSS; under setting [3], 7.9 DSS.
For the compound `COc1cccc2cc(-c3nc([C@H]4CC[C@H](C(=O)O)CC4)n4ncnc(N)c34)[nH]c12` [OSI-027], the drug sensitivity score reads like this: under setting [1], 5.4 DSS; under setting [2], 7.1 DSS; under setting [3], 2.5 DSS.
